Experiment [1] in a line: fluconazole-exposed Candida albicans growth modulators – fluorescence, retest, confirmation (AID 2467). It is filed as functional, cell-based.
Experiment [2] has as its target ATP-dependent molecular chaperone HSP82 (Candida albicans (strain WO-1) (Yeast), UniProt C4YTQ8). The experiment can be described thus: steroid-induced GRE reporter decrease in yeast – S. cerevisiae, luminescence, Hsp90 inhibitor project, dose response (AID 2400).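 Also: beta-galactosidase luminescence from glucocorticoid response element reporter as proxy for Hsp90 function; inhibitor potency where signal loss means Hsp90 inhibition.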 It is filed as functional, cell-based.
Experiment [3] in a line: Counterscreen for activators of the function of SWI/SNF related, matrix associated, actin dependent regulator of chromatin, subfamily a, member 2 (SMARCA2, BRM): Luminescence-based cell-based high throughput dose response assay to identify non-selective compounds using the VP16 reporter assay. It counts as functional. (In general: Counterscreens check selectivity or assay interference.)

The target of experiment [4] is SWI/SNF-related matrix-associated actin-dependent regulator of chromatin subfamily A member 2 (Homo sapiens, UniProt P51531). Briefly: Luminescence-based cell-based high throughput dose response assay to identify activators of the function of SWI/SNF related, matrix associated, actin dependent regulator of chromatin, subfamily a, member 2 (SMARCA2, BRM). It counts as functional.

Experiment [5] has as its target T1, Serine/threonine-protein phosphatase (Candida dubliniensis (strain CD36 / CBS 7987 / NCPF 3949 / NRRLY-17841) (Yeast), UniProt B9W6M3).
T1 sequence (B9W6M3 whole entry): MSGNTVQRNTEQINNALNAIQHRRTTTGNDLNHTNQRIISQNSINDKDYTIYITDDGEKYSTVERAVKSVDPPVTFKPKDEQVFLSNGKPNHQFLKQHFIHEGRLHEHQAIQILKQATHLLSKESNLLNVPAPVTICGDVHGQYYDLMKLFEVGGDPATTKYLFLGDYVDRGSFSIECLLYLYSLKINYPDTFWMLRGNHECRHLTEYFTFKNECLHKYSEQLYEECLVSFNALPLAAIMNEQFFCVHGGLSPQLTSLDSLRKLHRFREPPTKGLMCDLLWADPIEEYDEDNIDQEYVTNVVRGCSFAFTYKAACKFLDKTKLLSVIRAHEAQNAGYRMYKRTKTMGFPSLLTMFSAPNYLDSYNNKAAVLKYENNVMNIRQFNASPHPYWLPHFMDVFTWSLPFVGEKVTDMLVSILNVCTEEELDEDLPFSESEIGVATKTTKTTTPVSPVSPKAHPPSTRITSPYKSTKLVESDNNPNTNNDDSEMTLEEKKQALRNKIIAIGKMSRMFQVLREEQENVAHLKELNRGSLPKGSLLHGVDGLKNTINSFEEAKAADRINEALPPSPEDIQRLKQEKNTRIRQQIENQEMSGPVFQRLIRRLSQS
Briefly: blockers of CaCl2-induced CDRE-lacZ signaling – S. cerevisiae, luminescence, secondary, dose response (AID 2388).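 Also: yeast reporter cells carrying a calcineurin-responsive lacZ construct stimulated with calcium chloride; luminescent beta-galactosidase reporter signal in whole cells rather than isolated phosphatase activity; potency for inhibition where a drop in reporter signal means calcineurin blockade.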 It counts as functional, cell-based.

Experiment [6] in a line: NIH-3T3 fibroblast cytotoxicity, dose response, cytotoxicity control, cell-based, fluorescence, Alamar Blue, secondary assay (AID 2327).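 Also: NIH-3T3 mouse fibroblasts cultured with fluconazole at 8 µg/mL.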 It counts as functional.
Experiment [7] can be described thus: IGROV1 cell killing – plate reader, dry powder samples, PAX8 inhibitor project, dose response (AID 743043). It is filed as functional, cell-based. The conditions noted are these: IGROV-1.
The target in experiment [8] is Paired box protein Pax-8 (Homo sapiens, UniProt Q06710). Briefly: PAX8 transcriptional activity inhibition in RMG-I – RMG-I cells, luciferase, cherry-pick, dose response (AID 687027).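 Also: luciferase reporter driven by Pax8 target thyroperoxidase promoter measured by SteadyGlo luminescence.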 It is filed as functional, cell-based.
A short description of experiment [9]: toxicity to human hepatoma HepG2 cells – cell-based, cherry-picked samples, cytotoxicity control, dose response (AID 1159577). It counts as functional.
Experiment [10] in a line: P. falciparum Dd2 growth inhibitors, dose response, SYBR Green, cherry-picked samples (AID 1159567). It is filed as functional, cell-based.
Experiment [11] deals with T2, Oxysterols receptor LXR-beta (Homo sapiens, UniProt P55055).
T2 sequence (P55055 whole entry): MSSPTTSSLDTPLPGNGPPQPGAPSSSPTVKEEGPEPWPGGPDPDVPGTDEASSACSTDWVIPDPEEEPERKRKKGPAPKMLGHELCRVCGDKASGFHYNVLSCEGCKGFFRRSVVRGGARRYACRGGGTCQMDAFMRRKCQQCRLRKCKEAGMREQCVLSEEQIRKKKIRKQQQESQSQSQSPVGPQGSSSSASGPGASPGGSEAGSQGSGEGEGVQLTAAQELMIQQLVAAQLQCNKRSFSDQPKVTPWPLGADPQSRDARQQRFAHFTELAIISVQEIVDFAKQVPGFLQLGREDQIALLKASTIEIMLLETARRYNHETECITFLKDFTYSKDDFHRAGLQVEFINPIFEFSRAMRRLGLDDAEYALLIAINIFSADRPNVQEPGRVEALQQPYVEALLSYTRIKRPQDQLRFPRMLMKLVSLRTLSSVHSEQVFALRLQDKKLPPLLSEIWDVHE
It counts as functional, cell-based.

Experiment [12] is described as follows: Luminescence-based cell-based high throughput dose response assay to identify activators of the DAF-12 from the parasite S. stercoralis (ssDAF-12). It is filed as functional.
The target of experiment [13] is T2, Oxysterols receptor LXR-beta. Briefly: LXR agonists, Gal4 luciferase reporter, dose response, counter-screen for ssDAF-12 agonist project, cell-based, luminescence, HEK293, S. stercoralis campaign (AID 720737). It is filed as functional. The conditions noted are these: read-out: IC50 (the source's name).
Experiment [14] can be described thus: HIV-1 AD8 envelope cell-cell fusion blockers – cherry-pick, dose response (AID 652062).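 Also: luciferase signal from cell-cell fusion driven by HIV-1 clade B AD8 Env; potency is for inhibitors of fusion seen as a drop in luminescence.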 It is filed as functional, cell-based.
Experiment [15] can be described thus: blockers of HIV-1 ZM109 envelope-driven cell-cell fusion – HeLa effector, CEM target cells, luciferase, cherry-pick, dose response (AID 652058).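 Also: luciferase signal from HIV-1 Env mediated cell-cell fusion of effector and target cells.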 It counts as functional, cell-based.
Experiment [16] relates to INS1. Briefly: INS-1E survival protection against cytokine death – cell-based, luminescence, retest, dose response (AID 449756).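 Also: cell death triggered by IL-1 beta plus TNF-alpha plus IFN-gamma mixture; protective hits raise ATP signal compared with cytokine alone wells.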 The conditions noted are these: Rattus norvegicus. It is filed as functional.
A short description of experiment [17]: viability loss in CEM21 cells – cell-based, CellTiter-Glo luminescence, cherry-picked, cytotoxicity control for viral fusion inhibitor project, dose response (AID 652042).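 Also: potency for signal decrease meaning cytotoxicity.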 It counts as functional. On the technique in general: ATP-based viability assays read luminescence as a measure of living cells.
Experiment [18] can be described thus: blockers of HIV-1 envelope-mediated cell-cell fusion – cherry-pick, dose response (AID 652057). It is filed as functional, cell-based.
The nature of experiment [19]: microbe, parasite or virus in culture. It counts as functional. The note with it: Mycobacterium tuberculosis.
The nature of experiment [20]: Luminescence Cell-Based Dose Retest to Confirm Inhibitors of Cancer Stem Cells. [Related pubchem assays (depositor defined):AID2717, AID2721]. It is filed as functional. The note with it: Homo sapiens.
Experiment [21] has as its system BJ. The experiment can be described thus: BJ-TERT-LT-ST fibroblast viability loss – cell-based, RAS-independent, luminescence, dose response (AID 1935).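 Also: BJ fibroblasts immortalized with TERT plus LT and ST oncogenes.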 It counts as functional. The note with it: Homo sapiens.
Experiment [22] is described as follows: Luminescence Cell-Based Dose Confirmation HTS to Identify Inhibitors of Platelet Dense Granule Release. [Related pubchem assays: 1663 (Primary HTS), 1678 (Summary of Project)]. It is filed as functional.
Experiment [23] in a line: blockade of melanocortin 4 receptor signaling – cell-based, plate reader, cherry pick, counter-screen for LGR2 antagonist project, dose response (AID 743444).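 Also: transfected HEK 293 cells stimulated with alpha-MSH peptide; potency of inhibitors of the alpha-MSH evoked signal.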 It counts as functional.
For experiment [24], the system named is BJ. The experiment can be described thus: BJ-TERT fibroblast viability loss – cell-based, RAS-independent, luminescence, dose response (AID 1933). It is filed as functional. The conditions noted are these: Homo sapiens.
The nature of experiment [25]: viability loss in HEK293 cells – cell-based, plate reader, cherry-picked samples, cytotoxicity control, dose response (AID 743446). It is filed as functional.
Experiment [26] in a line: DRD fibroblast viability loss – cell-based, non-viral oncogenic, luminescence, dose response (AID 1934). The conditions noted are these: Homo sapiens. It is filed as functional.
A short description of experiment [27]: blockers of bursicon-stimulated LGR2 cAMP reporter – cell-based, HEK293, CRE-luciferase reporter, cherry pick, set 2, dose response (AID 743343).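 Also: transfected cells were stimulated with diluted bursicon conditioned medium after compound addition.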 It counts as functional. On the technique in general: A reporter such as luciferase makes a cellular process visible.
Experiment [28] can be described thus: toxicity toward HepG2 liver cells – cell-based, plate reader, cherry-pick, antagonist series, cytotoxicity control, dose response (AID 743416). It counts as functional.
A short description of experiment [29]: A549 cell cytotoxicity, dose response, cytotoxicity control, plate reader, cherry-pick, antagonist series (AID 743412). It is filed as functional, cell-based.
Experiment [30] deals with BJ. Briefly: growth inhibition of engineered Ras-driven BJ cells – cell-based, alamar blue fluorescence, cherrypicked samples, dose response (AID 2631).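 Also: confirmatory dose-response assay in RAS-dependent BJ fibroblasts engineered with TERT, LT and ST, with cytotoxicity read by fluorescence.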 The conditions noted are these: Homo sapiens. It counts as functional.
The target of experiment [31] is Luciferin 4-monooxygenase (Photinus pyralis, UniProt P08659). Briefly: inhibition of purified Photinus pyralis luciferase – biochemical, luminescence, dose response (AID 1891).

The source made the active and inactive calls.

SWI/SNF-related matrix-associated actin-dependent regulator of chromatin subfamily A member 2, sequence (P51531 whole entry): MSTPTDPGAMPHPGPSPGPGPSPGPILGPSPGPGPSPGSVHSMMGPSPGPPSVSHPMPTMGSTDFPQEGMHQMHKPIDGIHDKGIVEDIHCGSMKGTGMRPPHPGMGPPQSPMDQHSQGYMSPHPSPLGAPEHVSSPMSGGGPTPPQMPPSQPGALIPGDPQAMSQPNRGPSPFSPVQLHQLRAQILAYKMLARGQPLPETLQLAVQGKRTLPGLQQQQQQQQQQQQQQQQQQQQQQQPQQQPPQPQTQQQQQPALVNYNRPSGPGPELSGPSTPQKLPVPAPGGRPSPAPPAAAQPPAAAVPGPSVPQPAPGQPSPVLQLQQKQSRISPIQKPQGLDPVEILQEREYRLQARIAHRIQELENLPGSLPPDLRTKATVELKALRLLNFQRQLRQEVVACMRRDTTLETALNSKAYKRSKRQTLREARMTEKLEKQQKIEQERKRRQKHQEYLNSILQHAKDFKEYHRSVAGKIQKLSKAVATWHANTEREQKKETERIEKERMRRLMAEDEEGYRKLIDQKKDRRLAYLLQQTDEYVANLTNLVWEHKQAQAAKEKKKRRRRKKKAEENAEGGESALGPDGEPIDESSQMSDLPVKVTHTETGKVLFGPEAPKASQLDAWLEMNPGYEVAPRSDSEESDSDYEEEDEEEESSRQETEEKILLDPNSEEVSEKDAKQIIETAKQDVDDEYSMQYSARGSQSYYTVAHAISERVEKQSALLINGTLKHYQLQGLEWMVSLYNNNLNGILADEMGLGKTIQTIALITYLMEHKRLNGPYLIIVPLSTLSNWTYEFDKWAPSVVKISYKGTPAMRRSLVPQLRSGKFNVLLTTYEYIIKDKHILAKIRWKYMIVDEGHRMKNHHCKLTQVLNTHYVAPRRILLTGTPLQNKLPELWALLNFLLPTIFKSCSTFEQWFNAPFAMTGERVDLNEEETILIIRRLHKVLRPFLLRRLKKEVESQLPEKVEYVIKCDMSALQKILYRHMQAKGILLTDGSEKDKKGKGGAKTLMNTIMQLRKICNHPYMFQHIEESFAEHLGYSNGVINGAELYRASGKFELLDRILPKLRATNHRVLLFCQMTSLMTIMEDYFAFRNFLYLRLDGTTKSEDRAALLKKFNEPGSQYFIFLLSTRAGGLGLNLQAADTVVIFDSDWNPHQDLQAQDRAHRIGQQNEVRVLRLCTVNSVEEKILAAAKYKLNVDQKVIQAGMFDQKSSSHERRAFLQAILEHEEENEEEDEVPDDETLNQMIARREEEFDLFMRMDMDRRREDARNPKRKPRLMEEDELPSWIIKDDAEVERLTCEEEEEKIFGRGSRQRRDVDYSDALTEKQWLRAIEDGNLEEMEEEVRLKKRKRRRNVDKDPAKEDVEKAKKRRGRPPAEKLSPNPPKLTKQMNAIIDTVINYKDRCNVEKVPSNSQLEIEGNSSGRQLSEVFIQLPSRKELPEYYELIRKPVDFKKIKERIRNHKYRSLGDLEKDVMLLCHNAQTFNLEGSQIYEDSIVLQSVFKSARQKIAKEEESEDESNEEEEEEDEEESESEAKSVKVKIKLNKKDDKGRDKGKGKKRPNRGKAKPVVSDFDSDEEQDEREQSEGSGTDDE
Luciferin 4-monooxygenase, sequence (P08659 whole entry): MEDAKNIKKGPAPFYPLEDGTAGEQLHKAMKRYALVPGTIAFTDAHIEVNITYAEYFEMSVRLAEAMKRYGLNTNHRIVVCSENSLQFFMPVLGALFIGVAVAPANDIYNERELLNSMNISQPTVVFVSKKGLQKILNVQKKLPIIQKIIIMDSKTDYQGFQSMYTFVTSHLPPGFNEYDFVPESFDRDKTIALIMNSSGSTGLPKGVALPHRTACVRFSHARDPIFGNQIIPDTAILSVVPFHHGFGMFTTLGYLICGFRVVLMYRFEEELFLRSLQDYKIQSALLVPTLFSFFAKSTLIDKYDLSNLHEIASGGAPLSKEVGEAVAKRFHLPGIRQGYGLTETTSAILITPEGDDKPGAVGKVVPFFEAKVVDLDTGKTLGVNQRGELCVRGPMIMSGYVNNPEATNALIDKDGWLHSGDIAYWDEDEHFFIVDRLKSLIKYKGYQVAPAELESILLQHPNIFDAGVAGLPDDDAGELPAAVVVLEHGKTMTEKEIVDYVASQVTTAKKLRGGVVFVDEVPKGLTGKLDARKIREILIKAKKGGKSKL
ATP-dependent molecular chaperone HSP82, sequence (C4YTQ8 whole entry): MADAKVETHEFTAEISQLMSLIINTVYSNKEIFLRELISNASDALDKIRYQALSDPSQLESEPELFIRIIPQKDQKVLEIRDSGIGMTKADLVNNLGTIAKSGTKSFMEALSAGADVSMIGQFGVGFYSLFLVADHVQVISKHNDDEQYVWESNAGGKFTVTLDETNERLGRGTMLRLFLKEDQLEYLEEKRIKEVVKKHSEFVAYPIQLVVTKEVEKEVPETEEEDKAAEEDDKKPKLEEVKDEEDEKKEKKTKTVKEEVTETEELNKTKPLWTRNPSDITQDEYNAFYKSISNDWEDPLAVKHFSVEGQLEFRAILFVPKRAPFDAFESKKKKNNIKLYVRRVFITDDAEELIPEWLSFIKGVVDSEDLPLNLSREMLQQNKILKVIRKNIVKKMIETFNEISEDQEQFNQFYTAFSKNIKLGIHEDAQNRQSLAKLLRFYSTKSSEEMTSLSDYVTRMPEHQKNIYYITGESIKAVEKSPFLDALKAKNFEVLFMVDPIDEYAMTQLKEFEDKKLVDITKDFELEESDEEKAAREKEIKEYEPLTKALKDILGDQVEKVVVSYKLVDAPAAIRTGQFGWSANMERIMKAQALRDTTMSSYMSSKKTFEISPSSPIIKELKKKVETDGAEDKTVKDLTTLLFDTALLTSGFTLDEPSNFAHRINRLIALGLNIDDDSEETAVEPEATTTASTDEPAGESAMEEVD
Paired box protein Pax-8, sequence (Q06710 whole entry): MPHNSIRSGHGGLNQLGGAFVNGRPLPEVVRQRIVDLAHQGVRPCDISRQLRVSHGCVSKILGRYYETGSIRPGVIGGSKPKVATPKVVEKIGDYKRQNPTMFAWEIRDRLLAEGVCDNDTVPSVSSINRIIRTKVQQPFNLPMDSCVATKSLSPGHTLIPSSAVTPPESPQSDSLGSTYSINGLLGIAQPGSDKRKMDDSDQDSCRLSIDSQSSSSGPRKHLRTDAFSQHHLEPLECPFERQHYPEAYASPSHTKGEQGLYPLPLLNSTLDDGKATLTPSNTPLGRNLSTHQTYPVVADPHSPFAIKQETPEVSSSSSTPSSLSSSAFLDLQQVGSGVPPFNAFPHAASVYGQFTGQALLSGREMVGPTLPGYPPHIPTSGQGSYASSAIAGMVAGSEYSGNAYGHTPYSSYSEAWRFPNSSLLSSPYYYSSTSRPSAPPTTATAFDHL

As to `CC(=O)c1sc(NC(=O)CCS(=O)(=O)c2ccccc2)nc1C`, the EC50 in experiment [1] was 0.691 µM (active); in experiment [2], > 150 µM (inactive); in [3] it was > 91.1 µM (inactive); in experiment [4], > 91.1 µM (inactive); in experiment [5], > 180 µM (inactive); in experiment [6] it was > 150 µM (inactive).

Take `O=C(c1cc2ccccc2oc1=O)N1CCOCC1`: the EC50 in [3] and in experiment [4] was > 91.2 µM (inactive) each time.

As for `C[C@@H]1CCCCO[C@H](CN(C)S(=O)(=O)c2cccs2)[C@@H](C)CN([C@@H](C)CO)C(=O)c2cc(NC(=O)Nc3ccc(C(F)(F)F)cc3)ccc2O1`, the half-maximal activity concentration (AC50) (commonly the concentration giving half of the maximal activity seen) was 51.6 µM (active) in [7] and 3.48 µM (active) in experiment [8].

For the compound `O=C(COC(=O)c1cccc(O)c1)c1ccccc1`, the EC50 in [3] and in experiment [4] was > 91.1 µM (inactive) each time.

In the case of `CCCC#Cc1ccc([C@H]2[C@@H](CO)N3CCCCN(C(=O)NC4CCCC4)C[C@H]23)cc1`, the concentration at half-maximal activity (AC50) in experiment [9] was 12.6 µM (active); in experiment [10], 5.27 µM (active).

Take `Cc1c(C(=O)Nc2nccs2)oc2ccccc12`: the EC50 in experiment [11] and in [13] was > 67.6 µM (inactive) each time. In addition, the IC50 (usually the midpoint of a concentration-inhibition curve) in experiment [12] was > 67.6 µM (inactive).

For `CCOC(=O)[C@@H]1[C@H]2COc3cc(OC)ccc3[C@H]2N2C(=O)N(c3ccc(C(F)(F)F)cc3)C(=O)[C@]12C`, the AC50 in experiment [14] is 25 µM (active); in experiment [15] it was 38.8 µM (active); in experiment [16], 7.32 µM (active); in experiment [17] it was 27.7 µM (active); in experiment [18], 27.3 µM (active); in experiment [20] it was 3.05 µM (active). In [19], the CC50 is 13.2 µM (active).

Take `Clc1ccccc1Nc1nnc(-c2ccncc2)s1`: the EC50 is > 150 µM (inconclusive) in experiment [21]; 2.56 µM (active) in experiment [22]; > 67.5 µM (inactive) in experiment [11]; 7.07 µM (active) in [24]; 5.43 µM (active) in experiment [26]; > 133 µM (inactive) in experiment [30]. The EC50 in experiment [31] was 0.799 µM (active). Besides, the AC50 in experiment [23] is 8 µM (active); in experiment [25], 4.19 µM (active); in experiment [27] it was 5.65 µM (active); in [16] it was 4.99 µM (active); in [28] it was 8.92 µM (active); in [29], 4.79 µM (active).

The values above are taken from ChEMBL document CHEMBL1201862, “PubChem BioAssay data set” (2004).
